Several values for one entry are separate records, joined by “and”; a condition that tells them apart may be missing. Identical values can stand only once. Inconclusive results and toxic doses are left out. Rule for the calls: active = survival T/C of 150% or more; inactive = T/C below 125% in these data.
Test system: P388 leukemia ip, CD2F1 mice, survival T/C
Assay: NCI In Vivo Anticancer Drug Screen. Data for tumor model P388 Leukemia (intraperitoneal) in CD2F1 (CDF1) mice
Conditions: endpoint: median survival time, higher = longer survival
In short: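 Mice carrying the transplanted tumor received test compound or vehicle. Survival was recorded in each group, and the value is the treated-group measurement divided by that of the vehicle-treated control group.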

[1] = dose: 50.0 mg/kg/injection, schedule: Q01DX005 (ip), vehicle: saline with Tween-80
[2] = dose: 100.0 mg/kg/injection, schedule: Q01DX005 (ip), vehicle: saline with Tween-80
[3] = dose: 200.0 mg/kg/injection, schedule: Q01DX005 (ip), vehicle: saline with Tween-80
[4] = dose: 50.0 mg/kg/injection, schedule: Q01DX009 (ip), vehicle: saline with Tween-80
[5] = dose: 100.0 mg/kg/injection, schedule: Q01DX009 (ip), vehicle: saline with Tween-80
[6] = dose: 200.0 mg/kg/injection, schedule: Q01DX009 (ip), vehicle: saline with Tween-80
[7] = dose: 200.0 mg/kg/injection, schedule: Q01DX005 (ip), vehicle: Klucel (hydroxypropylcellulose) (HPC)

Measured: T/C

OCCN1C(c2ccccc2)=CN2C=CSC21 (configuration not stated)
inactive: dose: 100.0 mg/kg/injection, schedule: Q04DX002 (ip), vehicle: saline with Tween-80 97 % of control | dose: 200.0 mg/kg/injection, schedule: Q04DX002 (ip), vehicle: saline with Tween-80 94 % of control | dose: 400.0 mg/kg/injection, schedule: Q04DX002 (ip), vehicle: saline with Tween-80 97 % of control

C=COC(=O)C(NC(=O)OCc1ccccc1)c1ccccc1 (configuration not stated)
inactive: [1] 102 % of control | [2] 101 % of control | [3] 95 % of control

O=c1[nH]c2cc(Cl)ccc2nc1/C=C(\O)c1cccc(O)c1
inactive: dose: 15.0 mg/kg/injection, schedule: Q01DX005 (ip), vehicle: Klucel + Tween-80 106 % of control | dose: 30.0 mg/kg/injection, schedule: Q01DX005 (ip), vehicle: Klucel + Tween-80 94 % of control | dose: 60.0 mg/kg/injection, schedule: Q01DX005 (ip), vehicle: Klucel + Tween-80 101 % of control and 88 % of control

O=C1C(=O)N(c2ccccc2Cl)C(=O)N1Cc1ccccc1
inactive: dose: 50.0 mg/kg/injection, schedule: Q01DX009 (ip), vehicle: Klucel (hydroxypropylcellulose) (HPC) 95 % of control | dose: 100.0 mg/kg/injection, schedule: Q01DX009 (ip), vehicle: Klucel (hydroxypropylcellulose) (HPC) 98 % of control | dose: 200.0 mg/kg/injection, schedule: Q01DX009 (ip), vehicle: Klucel (hydroxypropylcellulose) (HPC) 91 % of control

Cc1[nH][nH]c(=O)c1[N+](=O)[O-]
inactive: [4] 99 % of control | [5] 108 % of control | [6] 114 % of control

Cc1[nH]c(=O)[nH]c(=O)c1CCSSCCc1c(C)[nH]c(=O)[nH]c1=O
inactive: [1] 102 % of control | [2] 100 % of control | [3] 98 % of control

CC(=O)N1CCc2cc([N+](=O)[O-])cc(Br)c21
inactive: dose: 12.5 mg/kg/injection, schedule: Q01DX009 (ip), vehicle: distilled water + Tween-80 107 % of control | dose: 25.0 mg/kg/injection, schedule: Q01DX009 (ip), vehicle: distilled water + Tween-80 98 % of control | dose: 50.0 mg/kg/injection, schedule: Q01DX009 (ip), vehicle: distilled water + Tween-80 91 % of control | dose: 100.0 mg/kg/injection, schedule: Q01DX009 (ip), vehicle: distilled water + Tween-80 98 % of control | dose: 200.0 mg/kg/injection, schedule: Q01DX009 (ip), vehicle: distilled water + Tween-80 91 % of control

COc1ccc(-c2sc(C)nc2O)cc1
inactive: [4] 101 % of control | [5] 94 % of control | [6] 98 % of control

COc1cc(CC(CC(=O)O)C(=O)O)cc(OC)c1OC (configuration not stated)
inactive: dose: 50.0 mg/kg/injection, schedule: Q01DX005 (ip), vehicle: Klucel (hydroxypropylcellulose) (HPC) 97 % of control | dose: 100.0 mg/kg/injection, schedule: Q01DX005 (ip), vehicle: Klucel (hydroxypropylcellulose) (HPC) 88 % of control | [7] 97 % of control

CCOc1cc(CC[N+](C)(C)C)cc2c1ccc1ccc(OC)c(OC)c12
inactive: dose: 6.25 mg/kg/injection, schedule: Q01DX005 (ip), vehicle: saline with Tween-80 99 % of control | dose: 12.5 mg/kg/injection, schedule: Q01DX005 (ip), vehicle: saline with Tween-80 100 % of control | dose: 25.0 mg/kg/injection, schedule: Q01DX005 (ip), vehicle: saline with Tween-80 96 % of control

CCOC(=O)C1=C(C)NC(C)=C(C(=O)OCC)C1c1ccccc1Cl
inactive: dose: 12.5 mg/kg/injection, schedule: Q01DX009 (ip), vehicle: saline 100 % of control | dose: 25.0 mg/kg/injection, schedule: Q01DX009 (ip), vehicle: saline 110 % of control | dose: 50.0 mg/kg/injection, schedule: Q01DX009 (ip), vehicle: saline 120 % of control

COc1ccc(-c2nn(C)c3c2C(=O)C=CC3=O)cc1OC
inactive: dose: 100.0 mg/kg/injection, schedule: Q01DX001 (ip), vehicle: Klucel (hydroxypropylcellulose) (HPC) 92 % of control | dose: 200.0 mg/kg/injection, schedule: Q01DX001 (ip), vehicle: Klucel (hydroxypropylcellulose) (HPC) 106 % of control | dose: 400.0 mg/kg/injection, schedule: Q01DX001 (ip), vehicle: Klucel (hydroxypropylcellulose) (HPC) 95 % of control

CCN(CC)CCCC(C)n1c2nc(=O)[nH]c(=O)c-2nc2cc(Cl)ccc21 (configuration not stated)
inactive: dose: 12.5 mg/kg/injection, schedule: Q01DX005 (ip), vehicle: saline 98 % of control | dose: 25.0 mg/kg/injection, schedule: Q01DX005 (ip), vehicle: saline 104 % of control | dose: 50.0 mg/kg/injection, schedule: Q01DX005 (ip), vehicle: saline 117 % of control and 119 % of control

NC(=O)c1c(Cl)nc2sccn12
inactive: dose: 25.0 mg/kg/injection, schedule: Q01DX001 (ip), vehicle: saline with Tween-80 107 % of control | dose: 50.0 mg/kg/injection, schedule: Q01DX001 (ip), vehicle: saline with Tween-80 104 % of control | dose: 100.0 mg/kg/injection, schedule: Q01DX001 (ip), vehicle: saline with Tween-80 101 % of control and 112 % of control

O=C(Nc1ccccc1)OC(CN1CCCCC1)C(CN1CCCCC1)OC(=O)Nc1ccccc1 (configuration not stated)
inactive: dose: 12.5 mg/kg/injection, schedule: Q01DX005 (ip), vehicle: Klucel (hydroxypropylcellulose) (HPC) 99 % of control | dose: 25.0 mg/kg/injection, schedule: Q01DX005 (ip), vehicle: Klucel (hydroxypropylcellulose) (HPC) 91 % of control | [7] 87 % of control
